Assay results taken from the NIST ThermoML archive (doi:10.1016/j.jct.2010.12.010).
Where “and” joins values, the source holds several entries; their conditions need not be identical. Equal entries are not always repeated.

Settings: Liquid, Manometric method

NCCN [ethane-1,2-diamine]
Settings	vapor or sublimation pressure
285.5 K	0.659 kPa
293.15 K	1.139 kPa
303.15 K	2.179 kPa
305.44 K	2.559 kPa
313.15 K	3.937 kPa
315.43 K	4.484 kPa
315.48 K	4.485 kPa
323.15 K	6.767 kPa
326.2 K	7.827 kPa
333.15 K	11.13 kPa
335.88 K	12.41 kPa
343.15 K	17.62 kPa
345.7 K	19.74 kPa and 19.73 kPa and 19.72 kPa
353.15 K	26.93 kPa
355.67 K	29.85 kPa and 29.83 kPa
355.69 K	29.84 kPa
363.15 K	39.94 kPa
365.6 K	43.83 kPa [middle of 4 runs]
365.63 K	43.82 kPa and 43.83 kPa and 43.81 kPa

CC(N)CN (centres undefined) [1,2-propanediamine]
Settings	vapor or sublimation pressure
284.01 K	0.5922 kPa
293.15 K	1.085 kPa
293.98 K	1.147 kPa and 1.145 kPa
303.15 K	2.004 kPa
303.91 K	2.1 kPa and 2.098 kPa
313.15 K	3.535 kPa
313.84 K	3.667 kPa and 3.669 kPa and 3.659 kPa
323.15 K	5.985 kPa
324.02 K	6.238 kPa
333.15 K	9.764 kPa
334 K	10.11 kPa
343.15 K	15.41 kPa
353.15 K	23.61 kPa
363.15 K	35.21 kPa
363.91 K	36.31 kPa and 36.33 kPa

O [water]
Settings	vapor or sublimation pressure
285.15 K	1.362 kPa
293.15 K	2.277 kPa
295.14 K	2.562 kPa
303.15 K	4.165 kPa
313.15 K	7.284 kPa
315.19 K	8.02 kPa
323.15 K	12.23 kPa
325.11 K	13.5 kPa and 13.53 kPa
325.13 K	13.5 kPa and 13.52 kPa and 13.53 kPa
333.15 K	19.82 kPa
335.12 K	21.77 kPa
343.15 K	31.09 kPa
345.05 K	33.84 kPa
345.07 K	33.85 kPa and 33.84 kPa
353.15 K	47.34 kPa
355.03 K	51.15 kPa
363.15 K	70.22 kPa
364.97 K	75.14 kPa [middle of 5 runs]

NCCCCN [1,4-butanediamine]
Settings	vapor or sublimation pressure
284.92 K	0.1292 kPa and 0.1296 kPa
293.15 K	0.2012 kPa
303.15 K	0.3324 kPa
312.83 K	0.54 kPa
313.15 K	0.5322 kPa
323.15 K	0.8282 kPa
332.86 K	1.276 kPa
333.15 K	1.256 kPa
342.85 K	1.703 kPa
343.15 K	1.859 kPa
352.87 K	2.691 kPa and 2.692 kPa
353.15 K	2.692 kPa
362.86 K	3.797 kPa and 3.813 kPa and 3.794 kPa
362.88 K	3.8 kPa
362.9 K	3.807 kPa
363.15 K	3.822 kPa

NCCCN [1,3-propanediamine]
Settings	vapor or sublimation pressure
284.84 K	0.3186 kPa and 0.3177 kPa
293.15 K	0.5332 kPa
294.82 K	0.5842 kPa
303.15 K	0.9648 kPa
313.15 K	1.688 kPa
314.79 K	1.829 kPa
323.15 K	2.863 kPa
324.9 K	3.145 kPa
333.15 K	4.72 kPa
334.87 K	5.175 kPa
343.15 K	7.58 kPa
344.87 K	8.263 kPa
353.15 K	11.88 kPa
354.83 K	12.67 kPa
363.15 K	18.22 kPa
364.78 K	19.47 kPa
